Values quoted from earlier work, collected in patent US8445278B2, “Process for producing decellularized biological tissues” (Medtronic, Inc., priority 2005, dated 2013).

System: fresh rat hepatocytes

In the case of `CCCCCCCCCCCCOS(=O)(=O)[O-].[Na+]` [SDS, sodium dodecyl sulphate], the IC50 is listed as 49 µM and the “concentration at which SDS is toxic” value is listed as no less than 10 µM.
